The source of these data is patent US20080112915A1, “Dna Delivery with Gemini Cationic Surfactants” (priority 2003, published 2008).

Data set [1] deals with PAM212 cells. In words: Transfection of PAM212 cells with pGTmCMV.IFN-GFP plasmid using gemini cationic surfactants and DOPE; IFNγ by ELISA. The data set is classed as cell-based, murine. To be noted: for IFN-γ expression: PAM212 cells, pGTmCMV.IFN-GFP, plasmid-gemini surfactant charge ratio 1:10 in 1 mM DOPE vesicles; for transfection efficiency (in words): dependence on spacer length, charge ratio 1:10, DOPE; for IFNγ levels versus the other compounds with longer linkers: p<0.001. Here is the method: The pGTmCMV.IFN-GFP plasmid was used at a concentration of 0.2 μg/well for transfection. Eight gemini surfactants were tested in this study (FIG. 1) (Wettig et al., 2001). Aqueous solutions (1.5 mM) of the gemini cationic surfactants were prepared and filtered through 0.2 μm Acrodisc® filters (Pall Gelman, Ann Arbor, Mich.). Lipid vesicles were prepared by using sonication techniques. 1,2 dioleyl-sn-glycero-phosphatidylethanolamine (DOPE) (Avanti Polar Lipids, Alabaster, Ala.) and α-tocopherol (Spectrum, Gardena Calif.) in 1:0.2 weight ratios were dissolved in 100% ethanol (Commercial Alcohols Inc., Brampton, ON) at a concentration of 10 mg lipid/mL in a round bottom flask. The solvent was evaporated in a rotary evaporator (Rotavapor RE111 BÜCHI Laboratoriums-Technik AG, Switzerland) at 100 rpm and 55° C. to deposit a thin film on the walls of the vessel. To remove traces of organic solvent, the lipid was lyophilized overnight. Glass beads were added to the flask and the lipid was resuspended at 1 μmol/mL concentration in 9.25% w/v isotonic sucrose (Spectrum, Gardena, Calif.) solution (pH 9). The suspensions were bath-sonicated (Branson 2200, Cleansonic Orange, Va.) for 3 hours at 55° C., followed by filtration through 0.45 μm Acrodisc® filters. PAM 212 murine keratinocyte cells were prepared for transfection as described earlier.
The transfection mixtures were prepared as follows: 0.2 μg of plasmid was mixed with aliquots of gemini surfactant solution to obtain plasmid DNA:gemini surfactant charge ratios of 1:5, 1:10, 1:20 or 1:40 and incubated at room temperature for 15 minutes. To this mixture, 25 μL of DOPE liposomes were added. The transfection mixtures were incubated for 30 minutes at room temperature prior to transfection and added to the cells, dropwise. The plates were incubated for periods of 5 or 6-24 hours at 37° C. in a CO2 incubator. The transfection mix was replaced with supplemented MEM and the plates further incubated for 24 hours. The supernatants were collected and stored at −20° C. As a positive control, the cells were transfected with Lipofectamine Plus™ Reagent, as described above.
ELISAs were performed using round bottom 96-well plates (Immulon II, Dynatech Laboratories, Chantilly, Va.). The plates were coated with 50 μL/well of capture antibody, rat anti-mouse IFNγ (Pharmingen, Mississauga, ON) 2 μg/mL coating buffer and incubated for 24 hours at 4° C. The wells were blocked with 1% bovine serum albumin (BSA) (New England Biolabs, Mississauga, ON) solution in PBS at room temperature for one hour. IFNγ standard (Pharmingen) of 250-2000 pg/mL concentration and was used in 1% BSA solution on plates. Protein resuspension buffer was used as a blank control. The supernatants from cell cultures and the skin and lymph homogenates, as well as the serum from mice, were diluted one in four on the plates and incubated overnight at 4° C. Biotinylated rat anti mouse IFNγ (Pharmingen) was added at […] concentration in 1% BSA solution. The plates were incubated for a further 2 h at room temperature. The streptavidin-alkaline phosphatase conjugate (Jackson Immuno Research Laboratories, Inc., West Grove, Pa.) was added in 1:5000 dilution and incubated for 1 h at room temperature, followed by addition of 4-nitrophenyl phosphate di(tris) salt 1 mg/mL in PNPP buffer (1% diethanolamine, 0.5 mM MgCl2, pH 9.8) (Sigma). Optical density of the samples was measured at 405 nm using a Benchmark Microplate Reader (BioRad, Mississauga, ON). The concentration of the IFNγ vas calculated from the standard IFNγ curve, using recombinant murine IFNγ (Pharmingen).

The conditions of data set [2]: cited from earlier work; for Γ × 10^6 (surface excess concentration): from Alami et al., 1993; for CMC (critical micellar concentration) / a (head group areas based on activity) / α (degree of micelle ionization): from Wettig et al., 2001; for Krafft point: from Zana; for Krafft point / distance between the cationic head groups: 2002; for distance between the cationic head groups: estimated, Chen et al.

For data set [3], the system named is PAM212 cells. In words: FACS of transfected PAM212 cells: GFP fluorescent cells and cell viability. It counts as cell-based, murine. How it is done: PAM212 cells were seeded on 6-well plates (Costar, Corning N.Y.) at a density of 1×10^6 cells/well density and grown to 60-80% confluency. The supplemented MEM was changed to MEM one hour prior to transfection. The transfection mixes were prepared with 1 μg pGTmCMV.IFN-GFP, using the 16-3-16 gemini cationic surfactant and DOPE liposomes at plasmid DNA:gemini cationic surfactant charge ratio of 1:5, 1:10, 1:20 or 1:40, as described earlier, keeping the concentration of the reagents constant. The cells were detached using Versene solution containing 0.05% trypsin (Sigma), pelleted at 4° C. and 1000 g for 5 minutes, washed twice with PBS and resuspended in Fa-cola (10 mM PBS pH 7.2, 0.2% gelatin, 0.03% sodium azide). Triplicate samples were pooled. The cell sorter was calibrated with non-transfected cells and 10^4 cells of each sample were counted.
The formulations were optimized for plasmid DNA:gemini surfactant charge ratio correlated with cell toxicity using the 16-3-16 compound. The optimal plasmid DNA:gemini surfactant charge ratio was determined by comparing the percentage of fluorescent cells (FIG. 5A) with cell viability (FIG. 5B). The cells were transfected with either transfection mixtures of the 16-3-16 gemini surfactant and DOPE at plasmid DNA:gemini surfactant charge ratio of 1:5, 1:10, 1:20 or 1:40, or Lipofectamine Plus™ Reagent (L), using 0.2 μg pGTmCMV.IFN-GFP, and compared to non-transfected cells (NT). Triplicate samples were pooled and 1×10^4 cells counted. […] At plasmid DNA:gemini surfactant charge ratio of 1:40 the transfection efficiency was 3.13%, however, cell viability fell to 20%. […] No fluorescence was detected in the non-transfected cells.

Setting [4] is: plasmid DNA:gemini surfactant charge ratio 1:40, with DOPE.
The mark [5] stands for this setting: plasmid:gemini surfactant charge ratio 1:10, with DOPE.

The cell viability is a per cent measure of how many cells are alive, often set against a control.

Some results are limits rather than exact numbers.

Take `CCCCCCCCCCCC[N+](C)(C)CCCCCCCC[N+](C)(C)CCCCCCCCCCCC.[Br-].[Br-]` [12-8-12]: the IFN-γ expression with PAM212 cells [1] was determined as 0.24 ± 0.12 ng/5 × 10^5 cells. Also, in data set [2], the “Γ × 10^6 (surface excess concentration)” value is 0.94 mol/m^2, the “CMC (critical micellar concentration)” value was 0.84 ± 0.03 mM, the “a (head group areas based on activity)” value is given as 1.78 nm^2/molecule and the “α (degree of micelle ionization)” value is listed as 0.46 ± 0.04. For the same compound, the Krafft point in data set [2] is below 0 °C.
Turning to `CCCCCCCCCCCC[N+](C)(C)CCC[N+](C)(C)CCCCCCCCCCCC.[Br-].[Br-]` [12-3-12], in the data set on PAM212 cells [1], the IFN-γ expression was found to be 1.11 ± 0.65 ng/5 × 10^5 cells, the “transfection efficiency (in words)” value is “highest activity” and the “IFNγ levels versus the other compounds with longer linkers” value (“IFNγ levels versus the other compounds” below) is “Significantly higher”. In addition, in data set [2], the “distance between the cationic head groups” value was 0.49 nm, the “Γ × 10^6 (surface excess concentration)” value is reported as 1.58 mol/m^2, the “CMC (critical micellar concentration)” value is 0.98 ± 0.04 mM and the “a (head group areas based on activity)” value is 0.98 nm^2/molecule. Moreover, in data set [2], the “α (degree of micelle ionization)” value was 0.23 ± 0.02 and the Krafft point was 12.7 °C.
Turning to `CCCCCCCCCCCC[N+](C)(C)CCCCCC[N+](C)(C)CCCCCCCCCCCC.[Br-].[Br-]` [12-6-12], the IFN-γ expression in the data set with PAM212 cells [1] was 0.48 ± 0.17 ng/5 × 10^5 cells. Also, in data set [2], the “distance between the cationic head groups” value is given as 0.91 nm, the “Γ × 10^6 (surface excess concentration)” value is 1.16 mol/m^2, the “CMC (critical micellar concentration)” value is on record as 1.09 ± 0.04 mM and the “a (head group areas based on activity)” value is on record as 1.40 nm^2/molecule. Further, in data set [2], the “α (degree of micelle ionization)” value is 0.34 ± 0.02 and the Krafft point was below 0 °C.
For `CCCCCCCC/C=C\CCCCCCCC(=O)OC[C@H](COP(=O)(O)OCCN)OC(=O)CCCCCCC/C=C\CCCCCCCC` [DOPE, 1,2 dioleyl-sn-glycero-phosphatidylethanolamine, reference compound], the “IFNγ detection after transfection with single component alone” value in the data set on PAM212 cells [1] (agent alone, or plasmid without transfection agents) is “No IFNγ was detected”.
Consider `CCCCCCCCCCCCCCCC[N+](C)(C)CCC[N+](C)(C)CCCCCCCCCCCCCCCC` [16-3-16], for which, in the data set on PAM212 cells [1], the IFN-γ expression is recorded as 1.63 ± 1.37 ng/5 × 10^5 cells, the “transfection efficiency (in words)” value was “highest activity” and the “IFNγ levels versus the other compounds” value is “Significantly higher”. Further, in data set [2], the “Γ × 10^6 (surface excess concentration)” value is 1.08 mol/m^2, the “CMC (critical micellar concentration)” value is recorded as 0.026 ± 0.001 mM, the “a (head group areas based on activity)” value is listed as 1.02 nm^2/molecule and the “α (degree of micelle ionization)” value was 0.35 ± 0.02. Also, in data set [2], the Krafft point is 42 °C. Further, in the data set with PAM212 cells [3] (setting [4]), the cell viability turned out to be 20% and the “transfection efficiency (fluorescent cells)” value amounted to 3.13%. In addition, in the data set with PAM212 cells [3] (setting [5]), the cell viability is listed as 74% and the “percentage of fluorescent cells” value was found to be 2.36%.
As for `CCCCCCCCCCCC[N+](C)(C)CCCCCCCCCCCCCCCC[N+](C)(C)CCCCCCCCCCCC.[Br-].[Br-]` [12-16-12], the IFN-γ expression in the data set on PAM212 cells [1] worked out at 0.49 ± 0.19 ng/5 × 10^5 cells. Moreover, in data set [2], the “Γ × 10^6 (surface excess concentration)” value is 0.83 mol/m^2, the “CMC (critical micellar concentration)” value is 0.12 ± 0.01 mM, the “a (head group areas based on activity)” value is given as 1.44 nm^2/molecule and the “α (degree of micelle ionization)” value is 0.59 ± 0.08. Further, the Krafft point in data set [2] is 24.3 °C.
On to `CCCCCCCCCCCC[N+](C)(C)CCCCCCCCCC[N+](C)(C)CCCCCCCCCCCC.[Br-].[Br-]` [12-10-12], for which, in the data set with PAM212 cells [1], the IFN-γ expression turned out to be 0.29 ± 0.10 ng/5 × 10^5 cells. For the same compound, in data set [2], the “Γ × 10^6 (surface excess concentration)” value was 0.75 mol/m^2, the “CMC (critical micellar concentration)” value is 0.62 ± 0.03 mM, the “a (head group areas based on activity)” value is recorded as 2.16 nm^2/molecule and the “α (degree of micelle ionization)” value is 0.51 ± 0.06. In data set [2], the Krafft point is below 0 °C.
`CCCCCCCCCCCC[N+](C)(C)CCCC[N+](C)(C)CCCCCCCCCCCC.[Br-].[Br-]` [12-4-12]: in the data set with PAM212 cells [1], the IFN-γ expression is reported as 0.66 ± 0.32 ng/5 × 10^5 cells and the “IFNγ levels versus the other compounds” value is listed as “Significantly higher”. Moreover, in data set [2], the “Γ × 10^6 (surface excess concentration)” value is recorded as 1.43 mol/m^2, the “CMC (critical micellar concentration)” value is on record as 1.17 ± 0.04 mM, the “a (head group areas based on activity)” value was 1.10 nm^2/molecule and the “α (degree of micelle ionization)” value was 0.26 ± 0.02. For the same compound, the Krafft point in data set [2] was 10.6 °C.
In the case of `CCCCCCCCCCCC[N+](C)(C)CCCCCCCCCCCC[N+](C)(C)CCCCCCCCCCCC` [12-12-12], the IFN-γ expression in the data set on PAM212 cells [1] is recorded as 0.33 ± 0.16 ng/5 × 10^5 cells. In data set [2], the “Γ × 10^6 (surface excess concentration)” value is on record as 0.73 mol/m^2, the “CMC (critical micellar concentration)” value is 0.36 ± 0.03 mM, the “a (head group areas based on activity)” value is reported as 2.14 nm^2/molecule and the “α (degree of micelle ionization)” value was 0.56 ± 0.08. For the same compound, the Krafft point in data set [2] is 13.6 °C.
